# Patent US6852673B2, “Herbicidal pyridine compounds” (BASF Aktiengesellschaft, priority 1998, dated 2005)
# Legend:
# Assay type in all cases: in vivo
# Hordeum vulgare (HORVW) [1] = test: Post-emergence herbicidal evaluation, winter barley; settings: rated 2 to 4 weeks after treatment
# Method in brief: (§1)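 Injury was scored visually from 0 to 9, with 0 matching untreated plants and 9 denoting death, between 2 and 4 weeks after foliar application of aqueous dilutions of acetone solutions at roughly 0.03–0.4 kg/ha per pot.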
# Solanum nigrum (SOLNI) [2] = test: Pre-emergence herbicidal evaluation, black nightshade
# Method in brief: (§2)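 Seeds mixed with potting soil were planted over about one inch of soil per pot, then sprayed with test compound in aqueous acetone at the equivalent of about 0.0125 to 0.4 kg per hectare. Pots were kept under standard greenhouse care and visually rated 2 to 4 weeks after treatment.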
# Lamium purpureum (LAMPU) [3] = test: Post-emergence herbicidal evaluation, purple deadnettle; settings: rated 2 to 4 weeks after treatment
# Method in brief: as §1
# Lamium purpureum (LAMPU) [4] = test: Pre-emergence herbicidal evaluation, purple deadnettle
# Method in brief: as §2
# Hordeum vulgare (HORVW) [5] = test: Pre-emergence herbicidal evaluation, winter barley
# Method in brief: as §2
# [6] = test system: Matricaria inodora (MATIN); test: Post-emergence herbicidal evaluation, mayweed; settings: rated 2 to 4 weeks after treatment
# Method in brief: as §1
# Stellaria media (STEME) [7] = test: Post-emergence herbicidal evaluation, chickweed; settings: rated 2 to 4 weeks after treatment
# Method in brief: as §1
# Galium aparine (GALAP) = test: Post-emergence herbicidal evaluation, cleaver; settings: rated 2 to 4 weeks after treatment
# Method in brief: as §1
# [8] = test system: Ambrosia artemiisifolia (AMBEL); test: Post-emergence herbicidal evaluation, ragweed; settings: rated 2 to 4 weeks after treatment
# Method in brief: as §1
# [9] = test system: Ambrosia artemiisifolia (AMBEL); test: Pre-emergence herbicidal evaluation, ragweed
# Method in brief: as §2
# Zea mays (ZEAMX) = test: Post-emergence herbicidal evaluation, maize; settings: rated 2 to 4 weeks after treatment
# Method in brief: as §1
# [10] = test system: Triticum aestivum (TRZAW); test: Pre-emergence herbicidal evaluation, winter wheat
# Method in brief: as §2
# Stellaria media (STEME) [11] = test: Pre-emergence herbicidal evaluation, chickweed
# Method in brief: as §2
# Glycine max (GLXMA) = test: Pre-emergence herbicidal evaluation, soyabeans
# Method in brief: as §2
# [12] = test system: Echinochloa grus galli (ECHCG); test: Pre-emergence herbicidal evaluation, barnyard grass
# Method in brief: as §2
# [13] = test system: Abutilon theophrasti (ABUTH); test: Post-emergence herbicidal evaluation, velvetleaf; settings: rated 2 to 4 weeks after treatment
# Method in brief: as §1
# [14] = test system: Abutilon theophrasti (ABUTH); test: Pre-emergence herbicidal evaluation, velvetleaf
# Method in brief: as §2
# Oryza sativum (ORYSA) [15] = test: Post-emergence herbicidal evaluation, rice; settings: rated 2 to 4 weeks after treatment
# Method in brief: as §1
# Setaria viridis (SETVI) [16] = test: Post-emergence herbicidal evaluation, green foxtail; settings: for SETVI rating: rated 2 to 4 weeks after treatment
# Method in brief: as §1
# Oryza sativum (ORYSA) [17] = test: Pre-emergence herbicidal evaluation, rice
# Method in brief: as §2
# [18] = test system: Triticum aestivum (TRZAW); test: Post-emergence herbicidal evaluation, winter wheat; settings: rated 2 to 4 weeks after treatment
# Method in brief: as §1
# Solanum nigrum (SOLNI) [19] = test: Post-emergence herbicidal evaluation, black nightshade; settings: rated 2 to 4 weeks after treatment
# Method in brief: as §1
# [20] = test system: Alopecurus myosuroides (ALOMY); test: Pre-emergence herbicidal evaluation, black grass
# Method in brief: as §2
# [21] = test system: Ipomoea hederacea (IPOHE); test: Pre-emergence herbicidal evaluation, morning glory
# Method in brief: as §2
# Setaria viridis (SETVI) [22] = test: Pre-emergence herbicidal evaluation, green foxtail
# Method in brief: as §2
# [23] = test system: Matricaria inodora (MATIN); test: Pre-emergence herbicidal evaluation, mayweed
# Method in brief: as §2
smiles,measurement,setting,value
Cc1cc(OCC(F)(F)C(F)F)nc(Oc2cc(C(F)(F)F)nn2C)c1 [Example 6],HORVW rating,Hordeum vulgare (HORVW) [1]; dose 0.1 kg/ha,2 (2 - Slight effect)
same,HORVW rating,Hordeum vulgare (HORVW) [1]; dose 0.25 kg/ha,1 (1 - Trace effect)
same,HORVW rating,Hordeum vulgare (HORVW) [1]; dose 0.4 kg/ha,3 (3 - Moderate effect)
same,SOLNI rating,Solanum nigrum (SOLNI) [2]; dose 0.013 kg/ha,4 (4 - Injury)
same,SOLNI rating,Solanum nigrum (SOLNI) [2]; dose 0.025 kg/ha,4 (4 - Injury)
same,SOLNI rating,Solanum nigrum (SOLNI) [2]; dose 0.1 kg/ha,8 (8 - Approaching complete kill)
same,SOLNI rating,Solanum nigrum (SOLNI) [2]; dose 0.4 kg/ha,9 (9 - Complete kill)
same,LAMPU rating,Lamium purpureum (LAMPU) [3]; dose 0.1 kg/ha,6 (6 - Herbicidal effect)
same,LAMPU rating,Lamium purpureum (LAMPU) [3]; dose 0.25 kg/ha,4 (4 - Injury)
same,LAMPU rating,Lamium purpureum (LAMPU) [3]; dose 0.4 kg/ha,7 (7 - Good herbicidal effect)
same,LAMPU rating,Lamium purpureum (LAMPU) [4]; dose 0.013 kg/ha,7 (7 - Good herbicidal effect)
same,LAMPU rating,Lamium purpureum (LAMPU) [4]; dose 0.025 kg/ha,7 (7 - Good herbicidal effect)
same,LAMPU rating,Lamium purpureum (LAMPU) [4]; dose 0.1 kg/ha,9 (9 - Complete kill)
same,LAMPU rating,Lamium purpureum (LAMPU) [4]; dose 0.4 kg/ha,9 (9 - Complete kill)
same,HORVW rating,Hordeum vulgare (HORVW) [5]; dose 0.013 kg/ha,0 (0 - No effect)
same,HORVW rating,Hordeum vulgare (HORVW) [5]; dose 0.025 kg/ha,0 (0 - No effect)
same,HORVW rating,Hordeum vulgare (HORVW) [5]; dose 0.1 kg/ha,2 (2 - Slight effect)
same,HORVW rating,Hordeum vulgare (HORVW) [5]; dose 0.4 kg/ha,3 (3 - Moderate effect)
same,MATIN rating,[6]; dose 0.1 kg/ha,6 (6 - Herbicidal effect)
same,MATIN rating,[6]; dose 0.25 kg/ha,4 (4 - Injury)
same,MATIN rating,[6]; dose 0.4 kg/ha,6 (6 - Herbicidal effect)
same,STEME rating,Stellaria media (STEME) [7]; dose 0.1 kg/ha,2 (2 - Slight effect)
same,STEME rating,Stellaria media (STEME) [7]; dose 0.25 kg/ha,2 (2 - Slight effect)
same,STEME rating,Stellaria media (STEME) [7]; dose 0.4 kg/ha,3 (3 - Moderate effect)
same,GALAP rating,Galium aparine (GALAP); dose 0.1 kg/ha,6 (6 - Herbicidal effect)
same,GALAP rating,Galium aparine (GALAP); dose 0.25 kg/ha,3 (3 - Moderate effect)
same,GALAP rating,Galium aparine (GALAP); dose 0.4 kg/ha,7 (7 - Good herbicidal effect)
same,AMBEL rating,[8]; dose 0.1 kg/ha,4 (4 - Injury)
same,AMBEL rating,[8]; dose 0.25 kg/ha,3 (3 - Moderate effect)
same,AMBEL rating,[8]; dose 0.4 kg/ha,6 (6 - Herbicidal effect)
same,AMBEL rating,[9]; dose 0.013 kg/ha,1 (1 - Trace effect)
same,AMBEL rating,[9]; dose 0.025 kg/ha,1 (1 - Trace effect)
same,AMBEL rating,[9]; dose 0.1 kg/ha,9 (9 - Complete kill)
same,AMBEL rating,[9]; dose 0.4 kg/ha,9 (9 - Complete kill)
same,ZEAMX rating,Zea mays (ZEAMX); dose 0.1 kg/ha,2 (2 - Slight effect)
same,ZEAMX rating,Zea mays (ZEAMX); dose 0.25 kg/ha,1 (1 - Trace effect)
same,ZEAMX rating,Zea mays (ZEAMX); dose 0.4 kg/ha,5 (5 - Definite injury)
same,TRZAW rating,[10]; dose 0.013 kg/ha,0 (0 - No effect)
same,TRZAW rating,[10]; dose 0.025 kg/ha,0 (0 - No effect)
same,TRZAW rating,[10]; dose 0.1 kg/ha,1 (1 - Trace effect)
same,TRZAW rating,[10]; dose 0.4 kg/ha,2 (2 - Slight effect)
same,STEME rating,Stellaria media (STEME) [11]; dose 0.1 kg/ha,9 (9 - Complete kill)
same,STEME rating,Stellaria media (STEME) [11]; dose 0.4 kg/ha,9 (9 - Complete kill)
same,GLXMA rating,Glycine max (GLXMA); dose 0.013 kg/ha,0 (0 - No effect)
same,GLXMA rating,Glycine max (GLXMA); dose 0.025 kg/ha,2 (2 - Slight effect)
same,GLXMA rating,Glycine max (GLXMA); dose 0.1 kg/ha,3 (3 - Moderate effect)
same,GLXMA rating,Glycine max (GLXMA); dose 0.4 kg/ha,5 (5 - Definite injury)
same,ECHCG rating,[12]; dose 0.013 kg/ha,0 (0 - No effect)
same,ECHCG rating,[12]; dose 0.025 kg/ha,3 (3 - Moderate effect)
same,ECHCG rating,[12]; dose 0.1 kg/ha,8 (8 - Approaching complete kill)
same,ECHCG rating,[12]; dose 0.4 kg/ha,9 (9 - Complete kill)
same,ABUTH rating,[13]; dose 0.1 kg/ha,4 (4 - Injury)
same,ABUTH rating,[13]; dose 0.25 kg/ha,2 (2 - Slight effect)
same,ABUTH rating,[13]; dose 0.4 kg/ha,6 (6 - Herbicidal effect)
same,ABUTH rating,[14]; dose 0.013 kg/ha,1 (1 - Trace effect)
same,ABUTH rating,[14]; dose 0.025 kg/ha,2 (2 - Slight effect)
same,ABUTH rating,[14]; dose 0.1 kg/ha,3 (3 - Moderate effect)
same,ABUTH rating,[14]; dose 0.4 kg/ha,9 (9 - Complete kill)
same,ORYSA rating,Oryza sativum (ORYSA) [15]; dose 0.1 kg/ha,1 (1 - Trace effect)
same,ORYSA rating,Oryza sativum (ORYSA) [15]; dose 0.25 kg/ha,1 (1 - Trace effect)
same,ORYSA rating,Oryza sativum (ORYSA) [15]; dose 0.4 kg/ha,1 (1 - Trace effect)
same,SETVI rating,Setaria viridis (SETVI) [16]; dose 0.1 kg/ha,3 (3 - Moderate effect)
same,SETVI rating,Setaria viridis (SETVI) [16]; dose 0.25 kg/ha,2 (2 - Slight effect)
same,SETVI rating,Setaria viridis (SETVI) [16]; dose 0.4 kg/ha,6 (6 - Herbicidal effect)
same,grass control such as Setaria virides,Setaria viridis (SETVI) [16]; in barley at crop selective doses,effective
same,ORYSA rating,Oryza sativum (ORYSA) [17]; dose 0.013 kg/ha,0 (0 - No effect)
same,ORYSA rating,Oryza sativum (ORYSA) [17]; dose 0.025 kg/ha,0 (0 - No effect)
same,ORYSA rating,Oryza sativum (ORYSA) [17]; dose 0.1 kg/ha,1 (1 - Trace effect)
same,ORYSA rating,Oryza sativum (ORYSA) [17]; dose 0.4 kg/ha,2 (2 - Slight effect)
same,TRZAW rating,[18]; dose 0.1 kg/ha,2 (2 - Slight effect)
same,TRZAW rating,[18]; dose 0.25 kg/ha,1 (1 - Trace effect)
same,TRZAW rating,[18]; dose 0.4 kg/ha,3 (3 - Moderate effect)
same,SOLNI rating,Solanum nigrum (SOLNI) [19]; dose 0.1 kg/ha,2 (2 - Slight effect)
same,SOLNI rating,Solanum nigrum (SOLNI) [19]; dose 0.25 kg/ha,1 (1 - Trace effect)
same,SOLNI rating,Solanum nigrum (SOLNI) [19]; dose 0.4 kg/ha,4 (4 - Injury)
same,ALOMY rating,[20]; dose 0.013 kg/ha,1 (1 - Trace effect)
same,ALOMY rating,[20]; dose 0.025 kg/ha,3 (3 - Moderate effect)
same,ALOMY rating,[20]; dose 0.1 kg/ha,9 (9 - Complete kill)
same,ALOMY rating,[20]; dose 0.4 kg/ha,9 (9 - Complete kill)
same,IPOHE rating,[21]; dose 0.013 kg/ha,0 (0 - No effect)
same,IPOHE rating,[21]; dose 0.025 kg/ha,1 (1 - Trace effect)
same,IPOHE rating,[21]; dose 0.1 kg/ha,2 (2 - Slight effect)
same,IPOHE rating,[21]; dose 0.4 kg/ha,8 (8 - Approaching complete kill)
same,SETVI rating,Setaria viridis (SETVI) [22]; dose 0.013 kg/ha,4 (4 - Injury)
same,SETVI rating,Setaria viridis (SETVI) [22]; dose 0.025 kg/ha,6 (6 - Herbicidal effect)
same,SETVI rating,Setaria viridis (SETVI) [22]; dose 0.1 kg/ha,8 (8 - Approaching complete kill)
same,SETVI rating,Setaria viridis (SETVI) [22]; dose 0.4 kg/ha,9 (9 - Complete kill)
same,MATIN rating,[23]; dose 0.1 kg/ha,9 (9 - Complete kill)
same,MATIN rating,[23]; dose 0.4 kg/ha,9 (9 - Complete kill)
